In US4820834A, “Benzodiazepine analogs” (priority 1987, dated 1989):
Where two headings read alike, the source gives them in different places.

Columns and labels:
CCK receptor (pancreas) = target: T1, CCK receptor (pancreas) (Rattus norvegicus, UniProt P30551); assay: CCK Receptor Binding (Pancreas): inhibition of ^125 I-CCK-33 binding; design: species or system Male Sprague-Dawley rats
T1 construct: The whole pancreas was dissected free of fat tissue and was homogenized; from tissue; host or cells: rat pancreas membranes (Sprague-Dawley)
T1 sequence (P30551 1-444): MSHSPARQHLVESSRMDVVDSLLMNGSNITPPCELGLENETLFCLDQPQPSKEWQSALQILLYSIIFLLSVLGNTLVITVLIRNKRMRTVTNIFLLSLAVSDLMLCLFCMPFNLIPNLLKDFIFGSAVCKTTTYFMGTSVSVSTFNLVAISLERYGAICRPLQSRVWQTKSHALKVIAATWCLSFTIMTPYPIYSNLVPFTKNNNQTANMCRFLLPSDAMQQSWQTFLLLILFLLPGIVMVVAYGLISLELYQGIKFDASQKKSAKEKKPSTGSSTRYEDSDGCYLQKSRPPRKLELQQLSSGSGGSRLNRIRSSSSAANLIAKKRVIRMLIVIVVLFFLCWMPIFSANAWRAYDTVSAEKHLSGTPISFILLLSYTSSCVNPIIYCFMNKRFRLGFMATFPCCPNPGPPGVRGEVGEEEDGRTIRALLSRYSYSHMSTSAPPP
Outline: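 Bound ^125I-CCK-33 was counted in pellets after a 30 min, 37° C incubation followed by centrifugation. Membranes came from male Sprague-Dawley rat pancreas, assayed in Tris HCl pH 7.7 containing DTT, bacitracin, PMSF and o-phenanthroline. For Scatchard analysis, tracer was diluted with rising unlabelled CCK-33.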

[1] = target: T2, CCK receptor (brain, cerebral cortex) (Cavia porcellus, UniProt H0VZC5); assay: biochemical; type: binding, Male Hartley guinea pigs
T2 construct: Cerebral cortex was dissected and used as a receptor source; from tissue; host or cells: guinea pig cerebral cortex membranes (male Hartley)
T2 sequence (H0VZC5 1-426): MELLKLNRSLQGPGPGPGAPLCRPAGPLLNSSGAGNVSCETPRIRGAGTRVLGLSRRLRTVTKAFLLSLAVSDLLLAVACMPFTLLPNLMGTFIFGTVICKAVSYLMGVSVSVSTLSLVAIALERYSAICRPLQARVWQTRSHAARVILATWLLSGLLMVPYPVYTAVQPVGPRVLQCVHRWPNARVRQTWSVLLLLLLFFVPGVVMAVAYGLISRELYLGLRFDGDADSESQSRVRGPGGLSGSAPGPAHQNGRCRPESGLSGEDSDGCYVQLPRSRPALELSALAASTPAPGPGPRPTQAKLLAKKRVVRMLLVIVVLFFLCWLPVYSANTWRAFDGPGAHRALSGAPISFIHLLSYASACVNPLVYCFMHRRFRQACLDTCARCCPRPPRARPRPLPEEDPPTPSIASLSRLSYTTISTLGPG
Outline: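 Binding of [radiolabeled] CCK-33 measured by gamma counting of centrifuged pellets after 2 h at 25°C. Membranes came from guinea pig brain cortex, suspended in 10 mM HEPES, 5 mM MgCl2, 1 mM EGTA, 0.25 mg/ml bacitracin, 0.4% BSA.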

[2] = target: T3, Gastrin receptor (gastric glands) (Cavia porcellus, UniProt H0VZC5); assay: Gastrin Receptor Binding in Guinea Pig Gastric Glands; design: species or system guinea pig (male Hartley)
T3 construct: The washed guinea pig gastric glands prepared as above were resuspended; from tissue; host or cells: guinea pig gastric mucosal glands (male Hartley)
T3 sequence (H0VZC5 1-426): T2 sequence (H0VZC5 1-426)

[3] = IC50 ^125 I-CCK Pancreas, rat pancreas membranes, ^125 I-CCK-33, 37° C., 30 minutes
[4] = IC50 ^125 I-CCK Brain, guinea pig cerebral cortex, ^125 I-CCK-33, 25° C., 2 hours
[5] = IC50 ^125 I-Gastrin Gastric Glands, 25° C., 30 minutes
[6] = rat pancreas membranes, ^125 I-CCK-33, 37° C., 30 minutes; read-out: IC50 ^125 I-CCK Pancreas
[7] = ^125 I-gastrin, 25° C., 30 minutes, read-out: IC50 ^125 I-Gastrin Gastric Glands
[8] = guinea pig cerebral cortex, ^125 I-CCK-33, 25° C., 2 hours, read-out: IC50 ^125 I-CCK Brain
[9] = read-out: IC50 ^125 I-CCK Pancreas; rat pancreas membranes, ^125 I-CCK-33, 37° C., 30 minutes
[10] = read-out: IC50 ^125 I-CCK Brain, guinea pig cerebral cortex, ^125 I-CCK-33, 25° C., 2 hours
[11] = read-out: IC50 ^125 I-Gastrin Gastric Glands, 25° C., 30 minutes

SMILES	IC50 (CCK receptor (pancreas); [3]) [µM]	IC50 [1, 4] [µM]	IC50 [2, 5] [µM]	IC50 (CCK receptor (pancreas); [6]) [µM]	IC50 [2, 7] [µM]	further results
O=C(NC1N=C(c2ccccc2F)c2ccccc2NC1=S)c1cc2ccccc2[nH]1 (racemic) [Example 181, 1,3-Dihydro-5-(2-fluorophenyl)-3-(RS)-(2-indole) carbonylamino-2H-1,4-benzodiazepin-2-thione]	0.002	9.3	4.4	–	–	–
CC(C)(C)OC(=O)N[C@H](Cc1c[nH]c2ccccc12)C(=O)Nc1ccccc1C(=O)c1ccccc1F [Example 1, 2-N-(Nα-Boc-D-tryptophanyl)amino-2'-fluorobenzophenone]	–	–	–	67	167	IC50 ([1]; read-out: IC50 ^125 I-CCK Brain): > 100 µM
CSC1=N[C@@H](Cc2cn(C)c3ccccc23)C(=O)N(C)c2ccccc21 [Example 7, 1,3-Dihydro-3(S)-[3'-(1'-methylindolyl)methyl]-1-methyl-5-methylthio-2H-1,4-benzodiazepin-2-one]	–	–	–	> 100	> 100	IC50 [1, 8]: 100 µM
CSC1=N[C@@H](Cc2c[nH]c3ccccc23)C(=O)N(C)c2ccccc21 [Example 8, 1,3-Dihydro-3(S)-(3'-indolyl)methyl-1-methyl-5-methylthio-2H-1,4-benzodiazepin-2-one]	–	–	–	100	227	IC50 [1, 8]: 100 µM
O=C1Nc2ccccc2C(c2ccccc2F)=N[C@@H]1CC1CNc2ccccc21 (stereo partly drawn) [Example 9]	10.7	48	–	–	78	–
O=C1Nc2ccccc2C(c2ccccc2F)=N[C@@H]1CC1CNc2ccccc21 (stereo partly drawn) [Example 10]	–	–	–	–	47	IC50 (CCK receptor (pancreas); [9]): 16.7 µM; IC50 [1, 10]: > 100 µM
CC(C)C[C@H]1N=C(c2ccccc2)c2cc(Cl)ccc2NC1=O [Example 14, 7-Chloro-1,3-dihydro-3(R)-(2-methyl-1-propyl)-5-phenyl-2H-1,4-benzodiazepin-2-one]	42	60	12	–	–	–
O=C1Nc2ccc(Cl)cc2C(c2ccccc2)=N[C@@H]1COCc1ccccc1 [Example 15, 3(R)-Benzyloxymethyl-7-chloro-1,3-dihydro-5-phenyl-2H-1,4-benzodiazepin-2-one]	60	80	38	–	–	–
O=C(NN=C1Nc2ccccc2C(c2ccccc2F)=N[C@@H]1Cc1c[nH]c2ccccc12)c1ccsc1 [Example 35, 1,3-Dihydro-5-(2-fluorophenyl)-3(R)-(3'-indolyl)methyl-2H-1,4-benzodiazepin-2-[N'-(3-thienoyl)]hydrazide]	10	15	> 100	–	–	–
CCN1C(=O)[C@@H](Cc2c[nH]c3ccccc23)N=C(c2ccccc2F)c2ccccc21 [Example 36, 1,3-Dihydro-1-ethyl-5-(2-fluorophenyl)-3(R)-(3'-indolyl)methyl-2H-1,4-benzodiazepin-2-one]	0.3	30	> 100	–	–	–
CC(C)CCN1C(=O)[C@@H](Cc2c[nH]c3ccccc23)N=C(c2ccccc2F)c2ccccc21 [Example 39, 1,3-Dihydro-5-(2-fluorophenyl)-3(R)-(3'-indolyl) methyl-1-(3-methylbutyl)-2H-1,4-benzodiazepine-2-one]	100	30	23	–	–	–
O=C(O)CN1C(=O)[C@@H](Cc2c[nH]c3ccccc23)N=C(c2ccccc2F)c2ccccc21 [Example 43]	–	–	–	–	–	IC50 (CCK receptor (pancreas); [9]): 0.3 µM; IC50 [1, 10]: 23 µM; IC50 [2, 11]: 5 µM
CN1C(=O)[C@@H](Cc2cn(C(=O)c3ccc(Cl)cc3)c3ccccc23)N=C(c2ccccc2F)c2ccccc21 [Example 45, 1,3-Dihydro-5-(2-fluorophenyl)-3(R)-[3'-(1'-p-chlorobenzyloylindolyl)methyl]-1-methyl-2H-1,4-benzodiazepin-2-one]	–	–	–	–	–	IC50 (CCK receptor (pancreas); [9]): 10.6 µM; IC50 [1, 10]: > 100 µM; IC50 [2, 11]: > 1000 µM
O=C1Nc2ccc(Cl)cc2C(c2ccccc2)=N[C@@H]1Cc1cn(-c2ccc([N+](=O)[O-])cc2[N+](=O)[O-])cn1 [Example 55, 7-Chloro-1,3-dihydro-3(R)-[(3'-(2,4-dinitrophenyl)imidazol-5'-yl)-methyl]-5-phenyl-2H-1,4-benzodiazepin-2-one]	7.6	–	–	–	76	IC50 [1, 8]: 38.6 µM
NCCCC[C@H]1N=C(c2ccccc2F)c2ccccc2NC1=O [Example 65, 1,3-Dihydro-5-(2'-fluorophenyl)-3(R)-(4-amino)butyl-2H-1,4-benzodiazepin-2-one]	> 100	> 100	> 1000	–	–	–
CN1C(=O)[C@@H](N)N=C(c2ccccc2)c2ccccc21 [Example 85a, 3(S)-(-)-3-Amino-1,3-dihydro-1-methyl-5-phenyl-2H-1,4-benzodiazepin-2-one]	–	> 100	> 100	100	–	–
CN1C(=O)[C@@H](NC(=O)c2cc3ccccc3[nH]2)N=C(c2ccccc2F)c2ccccc21 [Example 88, 3(S)-(+)-1,3-Dihydro-5-(2-fluorophenyl)-3-(2-indole-carbonylamino)-1-methyl-2H-1,4-benzodiazepin-2-one]	–	0.3	–	0.0006	0.027	–
CN1C(=O)[C@H](NC(=O)c2cc3ccccc3[nH]2)N=C(c2ccccc2F)c2ccccc21 [Example 89, 3(R)-(-)-1,3-Dihydro-5-(2-fluorophenyl)-3-(2-indole-carbonylamino)-1-methyl-2H-1,4-benzodiazepin-2-one]	–	1.1	–	0.019	0.24	–
CN1C(=O)[C@H](NC(=O)c2ccc(Cl)cc2)N=C(c2ccccc2F)c2ccccc21 [Example 90, 3(R)-(-)-1,3-Dihydro-3-(4-chlorobenzoylamino)-5-(2-fluorophenyl)-1-methyl-2H-1,4-benzodiazepin-2-one]	–	11	–	0.049	5.2	–
CN1C(=O)[C@@H](NC(=O)c2ccc(Cl)cc2)N=C(c2ccccc2F)c2ccccc21 [Example 91, 3(S)-(+)-1,3-Dihydro-3-(4-chlorobenzoylamino)-5-(2-fluorophenyl)-1-methyl-2H-1,4-benzodiazepin-2-one]	–	2.9	–	0.0025	0.8	–
CN1C(=O)[C@@H](NC(=O)c2ccc(Br)cc2)N=C(c2ccccc2)c2ccccc21 [Example 92, 3(S)-(-)-1,3-Dihydro-3-(4-bromobenzoylamino)-1-methyl-5-phenyl-2H-1,4-benzodiazepin-2-one]	0.0043	1.6	–	–	0.62	–
CN1C(=O)[C@H](NC(=O)c2ccc(Br)cc2)N=C(c2ccccc2)c2ccccc21 [Example 93, 3(R)-(+)-1,3-Dihydro-3-(4-bromobenzoylamino)-1-methyl-5-phenyl-2H-1,4-benzodiazepin-2-one]	–	2.9	–	0.7	2	–
O=C(O)CCN1C(=O)[C@@H](Cc2c[nH]c3ccccc23)N=C(c2ccccc2F)c2ccccc21 [Example 103, (2-Carboxyethyl)-1,3-dihydro-5-(2-fluorophenyl)-3(R)-(3'-indolyl)methyl-2H-1,4-benzodiazepin-2-one]	–	–	–	–	–	IC50 (CCK receptor (pancreas); [9]): 1.4 µM; IC50 [1, 10]: 11 µM; IC50 [2, 11]: 5.8 µM
O=CNc1ccccc1C(=O)CC1N=C(c2ccccc2F)c2ccccc2NC1=O (stereo not drawn) [Example 104, 1,3-Dihydro-5-(2-fluorophenyl)-3-(2-formylaminobenzoylmethyl)-2H-1,4-benzodiazepin-2-one]	0.3	–	–	–	> 100	IC50 [1, 8]: > 100 µM
